From US20260315434A1, “USE OF GUAIACOL SESQUITERPENE LACTONE DERIVATIVES” (NANJING UNIVERSITY OF CHINESE MEDICINE, priority 2023, published 2026)
Converted amounts (≈) assume the structure as drawn.

Assays:
[1] = tested on: MDSCs; experiment: Inhibition of MDSC chemotaxis (Transwell, tumor-conditioned medium); type: cell-based, mouse; set-up: inhibition of MDSC chemotaxis compared to Arg: dose or concentration left out as unconfirmed; conditions: for inhibition at 1 µM / inhibition at 10 µM: Mus musculus, read-out: Suppression Rate (MDSC chemotaxis); for inhibition of MDSC chemotaxis compared to Arg: result in words
Description: Hepa1-6 mouse hepatocellular carcinoma cells were uniformly seeded into 6-well plates. After cells reached confluence, supernatant was aspirated, and 1-1.5 mL fresh medium was added to each well. Following 24 h culture, supernatant was collected, centrifuged at 1600 rpm for 5 min, aspirated, and filtered through a 0.22 μm membrane to obtain tumor-conditioned medium for subsequent use. […] Under sterile conditions, remove the tibia, cut both ends of the bone, and aspirate the bone marrow into a 1 mL syringe. Repeat flushing into a 15 mL centrifuge tube. Centrifuge at 1600 rpm for 5 min to collect bone marrow cells. Wash twice with 1×PBS. […] Count cells, adjust density to 1×10^6 cells/mL, and uniformly seed into 24-well plates at 300 μL per well. […] Centrifuge at 1600 rpm for 5 min, remove supernatant, resuspend cells in 300 μL fresh medium, and place into Transwell chambers. […] Co-culture for 24 h.

[2] = tested on: CCR2 mRNA; experiment: Inhibition of CCR2 mRNA level in MDSCs; type: cell-based; conditions: Mus musculus, 2 h, read-out: Suppression Rate (inhibition of CCR2 mRNA levels)
Description: Under sterile conditions, the tibia was removed, both ends of the bone were cut, and bone marrow was repeatedly flushed into a 15 mL centrifuge tube using a 1 mL syringe filled with culture medium. Centrifuge at 1600 rpm for 5 min to collect bone marrow cells. […] Count cells and adjust density to 1×10^6 cells/mL in complete medium. Seed cells uniformly into 6-well plates at 2 mL per well. […] After incubation, collect cells into centrifuge tubes, centrifuge at 1600 rpm for 5 min, wash once with 1×PBS, and add 500 μL RNA extraction reagent to each tube. After centrifugation to obtain the pellet, add 20 μL DEPC-treated water to each tube to dissolve the pellet. Determine RNA concentration and reverse transcribe to cDNA. Add the cDNA, primers, and […] to a 96-well plate. Centrifuge at 4000 rpm for 5 min, then place in a PCR instrument for detection.

[3] = Water solubility testing of compounds (HPLC); conditions: deionized water, 37 °C; for solubility: water, Water-solubility
[4] = tested on: T cells / MDSCs; experiment: Promotion of T cell proliferation in a co-culture model of MDSCs and T cells; type: cell-based, mouse; conditions: for T cell proliferation in MDSC-T cell co-culture / T-cell proliferation rate (%): 1 μM; for T cell proliferation in MDSC-T cell co-culture: result in words; for activation at 1 µM: Mus musculus, T-cell, 12 h, read-out: T-cell proliferation rate (%), 1 μM, MDSCs treated 12 hours, co-culture of MDSCs and T cells, compared to the control group; for T-cell proliferation rate (%): MDSCs treated 12 hours, co-culture of MDSCs and T cells, compared to the control group
Procedure, shortened: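 Bone-marrow MDSCs, after compound treatment, were co-cultured 48 h at 1:1 with CFDA-SE-labelled (10 μM solution), activated splenic T cells. Proliferation of CD3+ T cells was read by flow cytometry.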

[5] = Conversion (release) of prodrug salts to parent compound in HEPES buffer pH 7.4; type: in vitro ADME; conditions: for Release rate (conversion to Compound 83): HEPES pH 7.4, 37 °C
Procedure, shortened: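 Salt dissolved in water, mixed 1:1 with HEPES solution pH 7.4 (NaCl, KCl, Na2HPO4, glucose) and held at 37° C. At 1, 2, 4, 8 and 12 h, samples were methanol-quenched, centrifuged and analysed by reversed-phase HPLC at 210 nm, with peak areas recorded for conversion to parent compound.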

[6] = Conversion (release) of prodrug salts to parent compound in mouse plasma; type: in vitro ADME; conditions: 37 °C
Procedure, shortened: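 Salts (0.6 mg in 250 μL water) were mixed 1:1 with heparinized mouse plasma or HEPES pH 7.4 and incubated at 37 °C. Samples were methanol-quenched and taken at 1–12 h. Parent compound was quantified by C18 HPLC-UV at 210 nm using peak areas.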

[7] = tested on: serum ALT and AST; experiment: CCl4-induced acute liver injury, serum ALT and AST; type: in vivo, C57BL/6 mice; conditions: 200 mg/kg
Description: (§1) They were acclimated for 7 days before use in experiments.
(§2) Mice were randomly assigned to groups. One group was arbitrarily designated as the normal group, while the remaining groups served as model group, Compound 1 group, Hydrochloride 20 group, Fumarate 21 group, and Silibinin group, with 6 mice per group. Except for the normal group receiving 10 mL olive oil/kg via injection, all other mice received 0.5 mL CCl4+9.5 mL olive oil/kg body weight via intraperitoneal injection, maintaining a CCl4 to olive oil ratio of 1:19. Starting from day 1 of modeling, Compound 1, Hydrochloride 20, and Fumarate 21 were administered orally for 3 consecutive days.
(§3) The blood was allowed to stand at room temperature for 2 hours, then centrifuged at 3000 rpm for 20 minutes. Serum was aspirated, aliquoted, and stored at −70° C. for future use. After blood collection, euthanize mice by cervical dislocation. Perform laparotomy to remove the liver. Rinse twice with pre-chilled PBS. Excise the left hepatic lobe tissue. […] Store remaining tissue at −70° C. for future use.
Serum AST and ALT Assay: Use 10 μL of each sample for testing. Determine mouse serum AST and ALT levels according to the operating manual. Measure absorbance at 510 nm using an enzyme-linked immunosorbent assay (ELISA) reader. Calculate sample concentration (U/L) based on the standard curve.
(§4) Data Statistics: All data are expressed as means f standard error of the mean (S.E.M.). Differences were analyzed for significance using analysis of variance (ANOVA). For groups showing significant differences in ANOVA, one-way ANOVA followed by Dunnett's test was performed to compare intergroup differences.

[8] = tested on: fibrosis-related factors (Acta2, Col1a1, Tgfb1) in liver tissue; experiment: CCl4-induced acute liver injury, liver fibrosis-related factor mRNA; type: in vivo, C57BL/6 mice; set-up: unit not given here; conditions: 200 mg/kg
Description: as §1, §2, §3
Q-PCR Analysis: Tissue total RNA extraction, cDNA synthesis, and PCR amplification methods are identical to Example 4. Additional primer information is as follows:
as §4

Compound | inhibition at 1 µM [1] [%] | inhibition at 10 µM [1] [%] | inhibition of MDSC chemotaxis compared to Arg [1] | inhibition at 1 µM [2] [%] | inhibition at 10 µM [2] [%] | Water-solubility [3] [µg/mL] | T cell proliferation in MDSC-T cell co-culture [4] | activation at 1 µM [4] [%] | T-cell proliferation rate (%) [4] | solubility [3] [µg/mL] | other results
C=C1C(=O)O[C@H]2[C@H]1CCC(C)=C1CC[C@@](C)(OC(=O)N3CCCCC3)[C@@H]12 [Compound 83] | 29.4 | 75.9 | superior inhibition rates | 17 | 70 | 152 | significantly enhanced T-cell proliferation | > 40 | – | – | –
C=C1C(=O)O[C@H]2[C@H]1CCC(C)=C1CC[C@@](C)(OC(=O)NCCN3CCOCC3)[C@@H]12 [Compound 78] | 29 | 67.1 | – | 23 | 52.7 | 200 | significantly enhanced T-cell proliferation | – | +++ (T-cell proliferation rate >40% compared to the control group) | – | –
CC1=C2CC[C@@](C)(OC(=O)N3CCCCC3)[C@@H]2[C@H]2OC(=O)[C@@H](CN3CCCC3)[C@@H]2CC1 [Compound 101] | – | – | – | – | – | 108000 | – | – | + (T-cell proliferation rate within the 0-20% range compared to the control group) | – | Release rate (conversion to Compound 83) ([5]; 1 h, 60 min): 7.0%; Release rate (conversion to Compound 83) ([5]; 2 h, 120 min): 16.0%; Release rate (conversion to Compound 83) ([5]; 4 h, 240 min): 28.2%; Release rate (conversion to Compound 83) ([5]; 8 h, 480 min): 46.4%; Release rate (conversion to Compound 83) ([5]; 12 h, 720 min): 53.6%; Release rate (conversion to Compound 83) ([6]; 1 h, 60 min): 7.6%; Release rate (conversion to Compound 83) ([6]; 2 h, 120 min): 16.6%; Release rate (conversion to Compound 83) ([6]; 4 h, 240 min): 27.4%; Release rate (conversion to Compound 83) ([6]; 8 h, 480 min): 46.0%; Release rate (conversion to Compound 83) ([6]; 12 h, 720 min): 54.2%
Silybin [reference compound] | – | – | – | – | – | – | – | – | – | – | ALT [7]: 121.58 ± 15.45 U/L; AST [7]: 301.45 ± 38.44 U/L; Acta2 mRNA expression, liver [8]: 2.91 ± 0.48; Col1a1 mRNA expression, liver [8]: 1.84 ± 0.17; Tgfb1 mRNA expression, liver [8]: 1.11 ± 0.08
C=C1C(=O)O[C@H]2[C@H]1CCC(C)=C1CC[C@@](C)(OC(=O)N3CCCC3)[C@@H]12 [Compound 82] | 38.5 | 77.6 | superior inhibition rates | 28.5 | 74.4 | – | significantly enhanced T-cell proliferation | > 40 | – | 148 (≈ 0.428 mM) | –
CC1=C2CC[C@@](C)(OC(=O)N3CCCCC3)[C@@H]2[C@H]2OC(=O)[C@@H](CN3CCCC3)[C@@H]2CC1 [Compound 100] | – | – | – | – | – | – | – | – | + (T-cell proliferation rate within the 0-20% range compared to the control group) | 145000 (≈ 336 mM) | degraded at 1 h ([5]; hepes buffer, pH 7.4, HEPES pH 7.4, 37 °C, 1 h, read-out: Release rate (conversion to Compound 83)): 6.5%; degraded at 2 h ([5]; hepes buffer, pH 7.4, HEPES pH 7.4, 37 °C, 2 h, read-out: Release rate (conversion to Compound 83)): 14%; degraded at 4 h ([5]; hepes buffer, pH 7.4, HEPES pH 7.4, 37 °C, 4 h, read-out: Release rate (conversion to Compound 83)): 26.4%; degraded at 8 h ([5]; hepes buffer, pH 7.4, HEPES pH 7.4, 37 °C, 8 h, read-out: Release rate (conversion to Compound 83)): 45.2%; degraded at 12 h ([5]; hepes buffer, pH 7.4, HEPES pH 7.4, 37 °C, 12 h, read-out: Release rate (conversion to Compound 83)): 51.4%; metabolised at 1 h ([6]; mouse, plasma, 1 h, read-out: Release rate (conversion to Compound 83)): 6.6%; metabolised at 2 h ([6]; mouse, plasma, 2 h, read-out: Release rate (conversion to Compound 83)): 13.8%; metabolised at 4 h ([6]; mouse, plasma, 4 h, read-out: Release rate (conversion to Compound 83)): 25.6%; metabolised at 8 h ([6]; mouse, plasma, 8 h, read-out: Release rate (conversion to Compound 83)): 43.2%; metabolised at 12 h ([6]; mouse, plasma, 12 h, read-out: Release rate (conversion to Compound 83)): 53%
